Where two headings read alike, the source gives them in different places.
Legend:
[1] = system: rat primary hepatocytes
[2] = system: HepG2 cells; details: cited from earlier work
[3] = system: HepG2 cells; assay: cells; details: Homo sapiens; for IC50: HepG2, read-out: MMP assays IC50 (µM) HepG2; for Emax: HepG2, read-out: MMP assays efficacy (%) HepG2
[4] = system: rat primary hepatocytes; assay: MMP assay in rat primary hepatocytes; details: for IC50: Rattus norvegicus, Hepatocyte, read-out: MMP assays IC50 (µM) Rat Hepatocytes
[5] = read-out: MMP assays IC50 (µM) qHTS-HepG2
[6] = read-out: MMP assays IC50 (µM), qHTS-HepG2

Structure (SMILES) | MMP assays efficacy (%) Rat Hepatocytes [1] | MMP assays efficacy (%) qHTS-HepG2 [2] | IC50 [2, 5] | IC50 [3] | Emax [3] | IC50 [4] | IC50 [2, 6] | MMP assays IC50 (µM) Rat Hepatocytes [4]
CCC(C)(C)c1cc(O)c(C(C)(C)CC)cc1O | -87±19% | -121±19% | 6.86 ± 3.17 µM | 3.55 µM | 101% | 34.5 ± 5.88 µM |  | 
CN1C(C(=O)Nc2ccccn2)=C(O)c2ccccc2S1(=O)=O [Piroxicam] | -84±3% | -109±18% |  | 5.88 µM | 103% | 4.79 ± 1.53 µM | 8.21 ± 1.71 µM | 
CS(=O)(=O)Nc1ccc([N+](=O)[O-])cc1Oc1ccccc1 [Nimesulide] | -117±42% | -101±6% |  | 4.16 µM | 120% | 2.74 ± 0.35 µM | 3.87 ± 0.23 µM | 
Clc1ccc(C(c2ccccc2Cl)C(Cl)Cl)cc1 (stereo not drawn) [o,p'-DDD] | -45±27% | -112±11% |  | 19.4 µM | 151% | 24.2 ± 14.7 µM | 19.8 ± 0.94 µM | 
Nc1ccc(-c2ccc(N)cc2)cc1 [Benzidine] | -69±64% | -59±14% | 24.3 ± 4.5 µM | 15.8 µM | 79% | 2.51 ± 3.54 µM |  | 
COC(=O)Nc1cccc(OC(=O)Nc2cccc(C)c2)c1 [Phenmedipham] | -95±20% | -101±10% |  | 7.08 µM | 107% | 19.4 ± 9.11 µM | 4.41 ± 2.02 µM | 
Oc1c(Cl)c(Cl)cc(Cl)c1Cl [2,3,5,6-Tetrachlorophenol] | -77±36% | -94±3% | 6.42 ± 2.38 µM | 8.91 µM | 92% | 9.2 ± 2.96 µM |  | 
O=Nc1ccc(O)cc1 [Compound 4-Nitrosophenol] | inactive | -87±9% | 4.71 ± 2.31 µM | 15.8 µM | 61% |  |  | inactive
C=C1/C(=C\C=C2/CCC[C@]3(C)[C@@H]([C@H](C)CCCC(C)(C)O)CC[C@@H]23)C[C@@H](O)C[C@@H]1O [Calcitriol] | -37±8% | -94±17% | 14.1 ± 4.15 µM | 15.5 µM | 75% | 22.4 ± 7.17 µM |  | 
Oc1c(Br)c(Br)c(Br)c(Br)c1Br [Pentabromophenol] | -93±13% | -104±8% |  | 7.94 µM | 106% | 4.98 ± 2.48 µM | 3.46 ± 0.99 µM | 
C#C[C@]1(OC(C)=O)CC[C@H]2[C@@H]3CCC4=C[C@@H](OC(C)=O)CC[C@@H]4[C@H]3CC[C@@]21C [Ethynodiol diacetate] | inactive | -62±16% | 15.4 ± 0.84 µM | 21.8 µM | 98% |  |  | inactive
Nc1ccc(Cl)cc1N [4-Chloro-1,2-diaminobenzene] | -88±17% | -94±12% | 2.38 ± 1.6 µM | 2 µM | 90% | 11 ± 4.37 µM |  | 
CN1C(C(=O)Nc2ccccn2)=C(O)c2sccc2S1(=O)=O [Tenoxicam] | -65±17% | -83±17% |  | 6.6 µM | 69% | 4.23 ± 3.79 µM | 8.36 ± 1.07 µM | 
CC1(C)[C@H](C=C(Cl)Cl)[C@H]1C(=O)OCc1c(F)c(F)cc(F)c1F [Transfluthrin] | inactive | -89±13% |  | 19.4 µM | 70% |  | 25 ± 4.09 µM | inactive
CCCCCCCCCCCCc1ccc(O)cc1 [Compound 4-Dodecylphenol] | -53±17% | -96±3% | 3.18 ± 0.58 µM | 5.01 µM | 102% | 25.1 ± 21.8 µM |  | 
O=[N+]([O-])c1ccc(Nc2ccccc2)cc1 [Compound 4-Nitro-N-phenylaniline] | -93±7% | -99±15% | 7.43 ± 6.54 µM | 8.91 µM | 94% | 23.9 ± 7.05 µM |  | 
O=C=Nc1ccc(Cl)cc1 [4-Chlorophenyl isocyanate] | -98±7% | -110±18% | 0.27 ± 0.11 µM | 0.71 µM | 99% | 1.56 ± 0.39 µM |  | 
Oc1ccc(Cc2ccccc2)cc1 [Compound 4-Benzylphenol] | inactive | -124±22% | 15.9 ± 3.38 µM | 31.6 µM | 118% |  |  | inactive
